Measured values taken from US8410161B2, “Thioxanthone ring system derivatives” (National Defense Medical Center, priority 2010, dated 2013).

How the values were obtained:
[1] = test system: A control cell lines; experiment: MTT assay, A control cell lines (lung cancer cell); type: cell-based
Source text: Please refer to Table 1 and FIGS. 4A-4C. According to a MTT assay (Table 1), various cell viabilities of the A control cell lines can be obtained and illustrated in FIG. 4A while the compounds No. 2˜30 are used to treat A control cell lines, wherein A control cell lines are lung cancer cell.

[2] = test system: A3 cell lines; experiment: MTT assay, A3 cell lines (lung cancer stem cell); type: cell-based
Source text: Please to FIG. 4B, various cell viabilities of the A3 cell lines can be obtained through the MTT assay and illustrated in FIG. 4B while the compounds No. 1˜30 are used to treat A3 cell lines, wherein A3 cell lines are lung cancer stem cell.

[3] = MTT assay, HEL299 fibroblast; type: cell-based; conditions: human
Source text: Please refer to FIG. 4C, various cell viabilities of the HEL299 cell lines can be obtained through the MTT assay while the compounds No. 1˜30 are used to treat HEL299 cell lines, wherein HEL299 cell lines are fibroblast.

[4] = test system: CCRF-CEM; experiment: NCI in vitro DTP human cell line screen, CCRF-CEM; type: cell-based; conditions: Leukemia, 1.00E−5 Molar
Protocol: (§1) Then, a cell toxicity assay of the cancer lines made by National Cancer Institute will be discussed as follows. The cell toxicity assay is performed by choosing ten compounds (existing certification numbers) from the 59 compounds disclosed in the present invention first.

[5] = test system: HL-60(TB); experiment: NCI in vitro DTP human cell line screen, HL-60(TB); type: cell-based; conditions: Leukemia, 1.00E−5 Molar
Protocol: as §1

[6] = test system: K562; experiment: NCI in vitro DTP human cell line screen, K562; type: cell-based; conditions: Leukemia, 1.00E−5 Molar
Protocol: as §1

[7] = test system: MOLT-4; experiment: NCI in vitro DTP human cell line screen, MOLT-4; type: cell-based; conditions: Leukemia, 1.00E−5 Molar
Protocol: as §1

[8] = test system: RPMI-8226; experiment: NCI in vitro DTP human cell line screen, RPMI-8226; type: cell-based; conditions: Leukemia, 1.00E−5 Molar
Protocol: as §1

[9] = test system: SR; experiment: NCI in vitro DTP human cell line screen, SR; type: cell-based; conditions: Leukemia, 1.00E−5 Molar
Protocol: as §1

[10] = test system: HOP-62; experiment: NCI in vitro DTP human cell line screen, HOP-62; type: cell-based; conditions: Non-Small Cell Lung Cancer, 1.00E−5 Molar
Protocol: as §1

[11] = test system: HOP-92; experiment: NCI in vitro DTP human cell line screen, HOP-92; type: cell-based; conditions: Non-Small Cell Lung Cancer, 1.00E−5 Molar
Protocol: as §1

[12] = test system: NCI-H226; experiment: NCI in vitro DTP human cell line screen, NCI-H226; type: cell-based; conditions: Non-Small Cell Lung Cancer, 1.00E−5 Molar
Protocol: as §1

[13] = test system: NCI-H23; experiment: NCI in vitro DTP human cell line screen, NCI-H23; type: cell-based; conditions: Non-Small Cell Lung Cancer, 1.00E−5 Molar
Protocol: as §1

[14] = test system: NCI-H322M; experiment: NCI in vitro DTP human cell line screen, NCI-H322M; type: cell-based; conditions: Non-Small Cell Lung Cancer, 1.00E−5 Molar
Protocol: as §1

[15] = test system: NCI-H460; experiment: NCI in vitro DTP human cell line screen, NCI-H460; type: cell-based; conditions: Non-Small Cell Lung Cancer, 1.00E−5 Molar
Protocol: as §1

[16] = test system: NCI-H522; experiment: NCI in vitro DTP human cell line screen, NCI-H522; type: cell-based; conditions: Non-Small Cell Lung Cancer, 1.00E−5 Molar
Protocol: as §1

[17] = test system: COLO 205; experiment: NCI in vitro DTP human cell line screen, COLO 205; type: cell-based; conditions: Colon Cancer, 1.00E−5 Molar
Protocol: as §1

[18] = test system: HCC-2998; experiment: NCI in vitro DTP human cell line screen, HCC-2998; type: cell-based; conditions: Colon Cancer, 1.00E−5 Molar
Protocol: as §1

[19] = test system: HCT-116; experiment: NCI in vitro DTP human cell line screen, HCT-116; type: cell-based; conditions: Colon Cancer, 1.00E−5 Molar
Protocol: as §1

[20] = test system: HCT-15; experiment: NCI in vitro DTP human cell line screen, HCT-15; type: cell-based; conditions: Colon Cancer, 1.00E−5 Molar
Protocol: as §1

[21] = test system: HT29; experiment: NCI in vitro DTP human cell line screen, HT29; type: cell-based; conditions: Colon Cancer, 1.00E−5 Molar
Protocol: as §1

[22] = test system: KM12; experiment: NCI in vitro DTP human cell line screen, KM12; type: cell-based; conditions: Colon Cancer, 1.00E−5 Molar
Protocol: as §1

[23] = test system: SW-620; experiment: NCI in vitro DTP human cell line screen, SW-620; type: cell-based; conditions: Colon Cancer, 1.00E−5 Molar
Protocol: as §1

[24] = test system: SF-268; experiment: NCI in vitro DTP human cell line screen, SF-268; type: cell-based; conditions: CNS Cancer, 1.00E−5 Molar
Protocol: as §1

[25] = test system: SF-539; experiment: NCI in vitro DTP human cell line screen, SF-539; type: cell-based; conditions: CNS Cancer, 1.00E−5 Molar
Protocol: as §1

[26] = test system: SNB-19; experiment: NCI in vitro DTP human cell line screen, SNB-19; type: cell-based; conditions: CNS Cancer, 1.00E−5 Molar
Protocol: as §1

[27] = test system: SNB-75; experiment: NCI in vitro DTP human cell line screen, SNB-75; type: cell-based; conditions: CNS Cancer, 1.00E−5 Molar
Protocol: as §1

[28] = test system: U251; experiment: NCI in vitro DTP human cell line screen, U251; type: cell-based; conditions: CNS Cancer, 1.00E−5 Molar
Protocol: as §1

[29] = test system: LOX IMVI; experiment: NCI in vitro DTP human cell line screen, LOX IMVI; type: cell-based; conditions: Melanoma, 1.00E−5 Molar
Protocol: as §1

[30] = test system: MALME-3M; experiment: NCI in vitro DTP human cell line screen, MALME-3M; type: cell-based; conditions: Melanoma, 1.00E−5 Molar
Protocol: as §1

[31] = test system: M14; experiment: NCI in vitro DTP human cell line screen, M14; type: cell-based; conditions: Melanoma, 1.00E−5 Molar
Protocol: as §1

[32] = test system: SK-MEL-2; experiment: NCI in vitro DTP human cell line screen, SK-MEL-2; type: cell-based; conditions: Melanoma, 1.00E−5 Molar
Protocol: as §1

[33] = test system: SK-MEL-28; experiment: NCI in vitro DTP human cell line screen, SK-MEL-28; type: cell-based; conditions: Melanoma, 1.00E−5 Molar
Protocol: as §1

[34] = test system: SK-MEL-5; experiment: NCI in vitro DTP human cell line screen, SK-MEL-5; type: cell-based; conditions: Melanoma, 1.00E−5 Molar
Protocol: as §1

[35] = test system: UACC-257; experiment: NCI in vitro DTP human cell line screen, UACC-257; type: cell-based; conditions: Melanoma, 1.00E−5 Molar
Protocol: as §1

[36] = test system: UACC-62; experiment: NCI in vitro DTP human cell line screen, UACC-62; type: cell-based; conditions: Melanoma, 1.00E−5 Molar
Protocol: as §1

[37] = test system: IGROV1; experiment: NCI in vitro DTP human cell line screen, IGROV1; type: cell-based; conditions: Ovarian Cancer, 1.00E−5 Molar
Protocol: as §1

[38] = test system: OVCAR-3; experiment: NCI in vitro DTP human cell line screen, OVCAR-3; type: cell-based; conditions: Ovarian Cancer, 1.00E−5 Molar
Protocol: as §1

[39] = test system: OVCAR-4; experiment: NCI in vitro DTP human cell line screen, OVCAR-4; type: cell-based; conditions: Ovarian Cancer, 1.00E−5 Molar
Protocol: as §1

[40] = test system: OVCAR-5; experiment: NCI in vitro DTP human cell line screen, OVCAR-5; type: cell-based; conditions: Ovarian Cancer, 1.00E−5 Molar
Protocol: as §1

[41] = test system: OVCAR-8; experiment: NCI in vitro DTP human cell line screen, OVCAR-8; type: cell-based; conditions: Ovarian Cancer, 1.00E−5 Molar
Protocol: as §1

[42] = test system: NCI/ADR-RES; experiment: NCI in vitro DTP human cell line screen, NCI/ADR-RES; type: cell-based; conditions: Ovarian Cancer, 1.00E−5 Molar
Protocol: as §1

[43] = test system: SK-OV-3; experiment: NCI in vitro DTP human cell line screen, SK-OV-3; type: cell-based; conditions: Ovarian Cancer, 1.00E−5 Molar
Protocol: as §1

[44] = test system: 786-0; experiment: NCI in vitro DTP human cell line screen, 786-0; type: cell-based; conditions: Renal Cancer, 1.00E−5 Molar
Protocol: as §1

[45] = test system: ACHN; experiment: NCI in vitro DTP human cell line screen, ACHN; type: cell-based; conditions: Renal Cancer, 1.00E−5 Molar
Protocol: as §1

[46] = test system: RXF 393; experiment: NCI in vitro DTP human cell line screen, RXF 393; type: cell-based; conditions: Renal Cancer, 1.00E−5 Molar
Protocol: as §1

[47] = test system: SN12C; experiment: NCI in vitro DTP human cell line screen, SN12C; type: cell-based; conditions: Renal Cancer, 1.00E−5 Molar
Protocol: as §1

[48] = test system: TK-10; experiment: NCI in vitro DTP human cell line screen, TK-10; type: cell-based; conditions: Renal Cancer, 1.00E−5 Molar
Protocol: as §1

[49] = test system: UO-31; experiment: NCI in vitro DTP human cell line screen, UO-31; type: cell-based; conditions: Renal Cancer, 1.00E−5 Molar
Protocol: as §1

[50] = test system: PC-3; experiment: NCI in vitro DTP human cell line screen, PC-3; type: cell-based; conditions: Prostate Cancer, 1.00E−5 Molar
Protocol: as §1

[51] = test system: DU145; experiment: NCI in vitro DTP human cell line screen, DU145; type: cell-based; conditions: Prostate Cancer, 1.00E−5 Molar
Protocol: as §1

[52] = test system: MCF7; experiment: NCI in vitro DTP human cell line screen, MCF7; type: cell-based; conditions: Breast Cancer, 1.00E−5 Molar
Protocol: as §1

[53] = test system: MDA-MB-231/ATCC; experiment: NCI in vitro DTP human cell line screen, MDA-MB-231/ATCC; type: cell-based; conditions: Breast Cancer, 1.00E−5 Molar
Protocol: as §1

[54] = test system: HS 578-T; experiment: NCI in vitro DTP human cell line screen, HS 578-T; type: cell-based; conditions: Breast Cancer, 1.00E−5 Molar
Protocol: as §1

[55] = test system: BT-549; experiment: NCI in vitro DTP human cell line screen, BT-549; type: cell-based; conditions: Breast Cancer, 1.00E−5 Molar
Protocol: as §1

[56] = test system: T-47D; experiment: NCI in vitro DTP human cell line screen, T-47D; type: cell-based; conditions: Breast Cancer, 1.00E−5 Molar
Protocol: as §1

[57] = test system: MDA-MB-468; experiment: NCI in vitro DTP human cell line screen, MDA-MB-468; type: cell-based; conditions: Breast Cancer, 1.00E−5 Molar
Protocol: as §1

[58] = test system: 60 cancer lines; experiment: NCI cell toxicity assay of 60 cancer lines, whole panel summary; type: cell-based, human; conditions: 1.00E−5 Molar
Protocol: as §1

SMILES: O=c1c2ccccc2sc2c(Cl)c(SCc3ccc(F)cc3)ccc12 [No. 24, 4-Chloro-3-(4-fluorobenzylthio)-9H-thioxanthen-9-one]
- cell viabilities of A control cell lines (MTT assay) [1]: 35.5%
- cell viabilities of A3 cell lines (MTT assay) [2]: 47.8%
- viability [3]: 62.7 ± 4.89%
- Growth Percent [4]: 68.02%
- Growth Percent [5]: 109.87%
- Growth Percent [6]: 90.35%
- Growth Percent [7]: 93.42%
- Growth Percent [8]: 92.73%
- Growth Percent [9]: 23.41%
- Growth Percent [10]: 70.93%
- Growth Percent [11]: 76.43%
- Growth Percent [12]: 92.71%
- Growth Percent [13]: 93.31%
- Growth Percent [14]: 89.87%
- Growth Percent [15]: 60.27%
- Growth Percent [16]: 76.14%
- Growth Percent [17]: 86.59%
- Growth Percent [18]: 100.08%
- Growth Percent [19]: 76.97%
- Growth Percent [20]: 84.86%
- Growth Percent [21]: 79.24%
- Growth Percent [22]: 102.36%
- Growth Percent [23]: 78.63%
- Growth Percent [24]: 95.00%
- Growth Percent [25]: 103.66%
- Growth Percent [26]: 77.05%
- Growth Percent [27]: 64.79%
- Growth Percent [28]: 54.73%
- Growth Percent [29]: 81.78%
- Growth Percent [30]: 93.42%
- Growth Percent [31]: 93.91%
- Growth Percent [32]: 108.61%
- Growth Percent [33]: 107.78%
- Growth Percent [34]: 95.97%
- Growth Percent [35]: 103.43%
- Growth Percent [36]: 85.61%
- Growth Percent [37]: 79.84%
- Growth Percent [38]: 105.27%
- Growth Percent [39]: 39.31%
- Growth Percent [40]: 108.14%
- Growth Percent [41]: 85.39%
- Growth Percent [42]: 92.71%
- Growth Percent [43]: 90.11%
- Growth Percent [44]: 91.67%
- Growth Percent [45]: 60.81%
- Growth Percent [46]: 92.20%
- Growth Percent [47]: 84.46%
- Growth Percent [48]: 83.61%
- Growth Percent [49]: 95.13%
- Growth Percent [50]: 86.19%
- Growth Percent [51]: 103.70%
- Growth Percent [52]: 89.93%
- Growth Percent [53]: 81.64%
- Growth Percent [54]: 67.70%
- Growth Percent [55]: 88.80%
- Growth Percent [56]: 81.88%
- Growth Percent [57]: 92.16%
- Growth Percent, Mean ([58]; mean over all cell lines): 85.42%
- cancer types with the better inhibition effect (in words) ([58]; summary of Table 3): better inhibition effect on Leukemia and central nervous system cancer
